Read-outs that look alike come from different tables or passages of the source.
Experiments:
Human α4β2 = biological target: T1, Human α4β2 (Homo sapiens, UniProt P17787+P43681); test: Competition binding to human α4β2 receptors in membranes of SH-EP1/human α4β2 cells ([3H]-nicotine); conditions: membrane competition binding
T1 construct: host or cells: SH-EP1

α6β3β4α5 = biological target: T2, α6β3β4α5 (Homo sapiens, UniProt P30926+Q15825); test: Competition binding to α6β3β4α5 receptors in membranes of SH-EP1/α6β3β4α5 cells ([3H]-epibatidine); conditions: membrane competition binding
T2 construct: host or cells: SH-EP1

Rat α4β2 = biological target: T3, Rat α4β2 (Rattus norvegicus, UniProt P09483+P12390); test: Competition binding to rat α4β2 receptors in rat cortical membranes; conditions: rat cortex membranes
T3 construct: Rat cortices were obtained from Analytical Biological Services; tissue Analytical Biological Services, Incorporated (ABS, Wilmington, Del.); host or cells: rat cortex (female Sprague-Dawley)
Method: Preparation of membranes from rat tissues. Rat cortices were obtained from Analytical Biological Services, Incorporated (ABS, Wilmington, Del.). Tissues were dissected from female Sprague-Dawley rats, frozen and shipped on dry ice. Tissues were stored at −20° C. until needed for membrane preparation. […] The resulting homogenate was centrifuged at 40,000 g for 20 minutes at 4° C. and the resulting pellet was resuspended in 20 volumes of ice-cold water. After 60-minute incubation at 4° C., a new pellet was collected by centrifugation at 40,000 g for 20 minutes at 4° C. The final pellet was resuspended in preparative buffer and stored at −20° C. On the day of the assay, tissue was thawed, centrifuged at 40,000 g for 20 minutes and then resuspended in PBS (Dulbecco's Phosphate Buffered Saline, Life Technologies, pH 7.4) to a final concentration of 2-3 mg protein/mL. Protein concentrations were determined using the Pierce BCA Protein Assay kit (Pierce Biotechnology, Rockford, Ill.), with bovine serum albumin as the standard.
Competition binding to receptors in membrane preparations. […] In brief, membranes were reconstituted from frozen stocks (approximately 0.2 mg protein) and incubated for 2 h on ice in […] assay buffer (PBS) in the presence of competitor compound (0.001 nM to […]) and radioligand. [^3H]-nicotine (L-(−)-[N-methyl-3H]-nicotine, 69.5 Ci/mmol, Perkin-Elmer Life Sciences) was used for human α4β2 binding studies. [^3H]-epibatidine (52 Ci/mmol, Perkin-Elmer Life Sciences) was used for binding studies at the other receptor subtypes. […] Filters were washed 3 times and the radioactivity retained was determined by liquid scintillation counting.
Binding data analysis. Binding data were expressed as percent total control binding. Replicates for each point were averaged and plotted against the log of drug concentration.

Row | Structure (SMILES) | Ki (Human α4β2; Human α4β2 Ki) | Ki (α6β3β4α5; read-out: α6β3β4α5 Ki) | Ki (Rat α4β2; Rat α4β2 Ki) | Ki (α6β3β4α5; α6β3β4α5 Ki) | Ki (Human α4β2; read-out: Human α4β2 Ki) | Ki (Rat α4β2; read-out: Rat α4β2 Ki)
1 | O=C(c1cnco1)N1CC2CC(C1)N2 | 0.028 µM | 17 µM | 0.00018 µM |  |  | 
2 | Cc1ncoc1C(=O)N1CC2CC(C1)N2 |  | 11 µM | 0.038 µM |  |  | 
3 | O=C(C1CC1(F)F)N1CC2CC(C1)N2 (stereo not shown) | 0.0061 µM |  | 0.0088 µM | 0.51 µM |  | 
4 | O=C(CC1CCCC1)N1C2CNCC1C2 |  | 0.36 µM | 0.1 µM |  | 0.22 µM | 
5 | O=C(CC1CCOC1)N1C2CNCC1C2 (stereo not shown) |  | 1.6 µM |  |  | 0.33 µM | 0.13 µM
6 | O=C([C@H]1CCCO1)N1C2CNCC1C2 |  | 1.1 µM |  |  | 0.39 µM | 
7 | O=C(CC1CC1)N1C2CNCC1C2 | 0.043 µM | 0.31 µM | 0.027 µM |  |  | 
8 | CC1(C)C(C(=O)N2CC3CC(C2)N3)C1(C)C |  | 0.48 µM |  |  | 0.14 µM | 0.71 µM
9 | CC1CC1C(=O)N1CC2CC(C1)N2 (stereo not shown) | 0.005 µM |  | 0.0018 µM | 0.12 µM |  | 
10 | O=C(CSc1ccc(Cl)c(Cl)c1)N1CC2CC(C1)N2 | 0.0023 µM |  | 0.016 µM | 0.1 µM |  | 
11 | O=C(CSc1ccc(O)cc1)N1CC2CC(C1)N2 | 0.011 µM | 0.12 µM | 0.0086 µM |  |  | 
12 | O=C(NCc1ccccc1)N1CC2CC(C1)N2 |  | 0.4 µM |  |  | 0.27 µM | 0.2 µM
13 | O=C(NCc1ccc(Cl)cc1)N1CC2CC(C1)N2 |  | 0.21 µM | 0.004 µM |  | 0.11 µM | 
14 | O=C(NCc1ccc(Cl)cc1Cl)N1CC2CC(C1)N2 | 0.048 µM |  | 0.024 µM | 0.038 µM |  | 
15 | O=C(NCc1ccc(Cl)c(Cl)c1)N1CC2CC(C1)N2 | 0.09 µM | 0.12 µM | 0.071 µM |  |  | 
16 | CCCC(=O)N1CC2CC(C1)N2 | 0.012 µM |  | 0.0041 µM | 0.29 µM |  | 
17 | O=C(CCC(F)(F)F)N1CC2CC(C1)N2 | 0.074 µM | 0.98 µM | 0.063 µM |  |  | 

Row | Structure (SMILES) | Ki (Human α4β2; Human α4β2 Ki) | Ki (α6β3β4α5; read-out: α6β3β4α5 Ki) | Ki (Rat α4β2; Rat α4β2 Ki) | Ki (α6β3β4α5; α6β3β4α5 Ki) | Ki (Human α4β2; read-out: Human α4β2 Ki) | Ki (Rat α4β2; read-out: Rat α4β2 Ki)
18 | C/C=C/CCC(=O)N1CC2CC(C1)N2 | 0.037 µM | 0.54 µM | 0.025 µM |  |  | 
19 | O=C(CC1CCC1)N1CC2CC(C1)N2 | 0.049 µM | 0.44 µM | 0.034 µM |  |  | 
20 | CC1(C)CC1C(=O)N1CC2CC(C1)N2 (stereo not shown) | 0.0053 µM |  | 0.0067 µM | 0.12 µM |  | 
21 | CCC1(CC)CC1C(=O)N1CC2CC(C1)N2 (stereo not shown) | 0.071 µM | 0.47 µM | 0.069 µM |  |  | 
22 | C[C@@H]1C(C(=O)N2CC3CC(C2)N3)[C@@H]1C (stereo partly shown) | 0.044 µM | 0.17 µM | 0.03 µM |  |  | 
23 | O=C([C@@H]1C[C@H]1c1ccccc1)N1CC2CC(C1)N2 | 0.0047 µM |  | 0.0044 µM | 0.064 µM |  | 
24 | O=C(C1CC12CCC2)N1CC2CC(C1)N2 (stereo not shown) | 0.0026 µM |  | 0.0012 µM | 0.05 µM |  | 
25 | O=C(C1CC12CCCC2)N1CC2CC(C1)N2 (stereo not shown) | 0.026 µM |  | 0.031 µM | 0.096 µM |  | 
26 | O=C(C1C2CCCCC21)N1CC2CC(C1)N2 (stereo not shown) | 0.078 µM | 0.28 µM | 0.03 µM |  |  | 
27 | CCC[C@H]1C[C@H]1C(=O)N1CC2CC(C1)N2 | 0.044 µM | 0.22 µM |  |  |  | 0.13 µM
28 | CC1CC(C(=O)N2CC3CC(C2)N3)C1 (stereo not shown) | 0.023 µM | 0.38 µM | 0.022 µM |  |  | 
29 | O=C(C1CC(F)(F)C1)N1CC2CC(C1)N2 | 0.016 µM | 0.37 µM | 0.019 µM |  |  | 
30 | O=C([C@@H]1C[C@@H]2C=C[C@H]1C2)N1CC2CC(C1)N2 |  | 1.3 µM |  |  | 0.16 µM | 0.21 µM
31 | CCCC(=O)N1C2CNCC1C2 | 0.0099 µM | 0.23 µM | 0.0051 µM |  |  | 
32 | O=C(CCC(F)(F)F)N1C2CNCC1C2 |  | 1.5 µM | 0.072 µM |  | 0.18 µM | 
33 | C/C=C/CCC(=O)N1C2CNCC1C2 | 0.053 µM | 0.4 µM | 0.015 µM |  |  | 

From US8802694B2, “3,6-diazabicyclo[3.1.1]heptanes as neuronal nicotinic acetycholine receptor ligands” (Targacept, Inc., priority 2009, dated 2014)
